Data from ChEMBL document CHEMBL5465560, “Selectivity Literature for EUbOPEN Chemogenomic Library” (2024).

Assays:
[1] = target: Serine/threonine-protein kinase 24 (Homo sapiens) (UniProt Q9Y6E0); assay: Selectivity interaction (Kinase panel (KiNativ target engagement assay in Jurkat cells)) EUB0001635a STK24; type: cell-based; details: Selectivity number of off-targets 0.0, Selectivity number of targets 233.0, Source Knowledge https://www.sciencedirect.com/science/article/pii/S2451945619300674?via%3Dihub, at 1 µM
[2] = target: Mitogen-activated protein kinase 11 (Homo sapiens) (UniProt Q15759); assay: Selectivity interaction (Millipore kinase profiler) EUB0000124b MAPK11; details: at 10 µM
[3] = target: T1, Serine/threonine-protein kinase tousled-like 1 (Homo sapiens) (UniProt Q9UKI8); details: at 10 µM
T1 sequence (whole entry): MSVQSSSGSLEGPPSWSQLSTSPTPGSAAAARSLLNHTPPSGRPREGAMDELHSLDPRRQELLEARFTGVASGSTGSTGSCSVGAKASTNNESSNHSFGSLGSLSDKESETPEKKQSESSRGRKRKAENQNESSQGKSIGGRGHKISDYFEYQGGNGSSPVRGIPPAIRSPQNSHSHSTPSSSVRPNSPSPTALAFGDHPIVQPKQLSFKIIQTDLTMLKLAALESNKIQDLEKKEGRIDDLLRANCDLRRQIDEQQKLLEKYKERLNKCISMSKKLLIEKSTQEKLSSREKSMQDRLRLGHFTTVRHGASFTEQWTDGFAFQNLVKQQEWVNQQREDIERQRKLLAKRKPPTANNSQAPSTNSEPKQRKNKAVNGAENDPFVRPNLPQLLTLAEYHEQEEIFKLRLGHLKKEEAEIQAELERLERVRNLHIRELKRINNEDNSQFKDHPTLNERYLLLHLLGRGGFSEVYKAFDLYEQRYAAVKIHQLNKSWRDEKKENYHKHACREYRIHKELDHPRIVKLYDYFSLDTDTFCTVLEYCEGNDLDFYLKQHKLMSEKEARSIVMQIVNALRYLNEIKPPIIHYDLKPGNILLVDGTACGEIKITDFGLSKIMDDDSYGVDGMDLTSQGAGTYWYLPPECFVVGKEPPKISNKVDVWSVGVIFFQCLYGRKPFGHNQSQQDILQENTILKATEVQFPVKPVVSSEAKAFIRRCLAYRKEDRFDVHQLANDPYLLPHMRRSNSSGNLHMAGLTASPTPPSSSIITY

[4] = target: Histone acetyltransferase KAT2B (Homo sapiens, UniProt Q92831); assay: Selectivity interaction (Bromodomain panel (DSF asssay)) EUB0000270b KAT2B
[5] = target: T2, Serine/threonine-protein kinase D3 (Homo sapiens) (UniProt O94806); assay: Selectivity interaction (ActivX KiNativ screen (kinase selectivity in THP-1 cell lysates)) EUB0000639a PRKD3; type: subcellular; details: lysate, at 5 µM
T2 sequence (whole entry): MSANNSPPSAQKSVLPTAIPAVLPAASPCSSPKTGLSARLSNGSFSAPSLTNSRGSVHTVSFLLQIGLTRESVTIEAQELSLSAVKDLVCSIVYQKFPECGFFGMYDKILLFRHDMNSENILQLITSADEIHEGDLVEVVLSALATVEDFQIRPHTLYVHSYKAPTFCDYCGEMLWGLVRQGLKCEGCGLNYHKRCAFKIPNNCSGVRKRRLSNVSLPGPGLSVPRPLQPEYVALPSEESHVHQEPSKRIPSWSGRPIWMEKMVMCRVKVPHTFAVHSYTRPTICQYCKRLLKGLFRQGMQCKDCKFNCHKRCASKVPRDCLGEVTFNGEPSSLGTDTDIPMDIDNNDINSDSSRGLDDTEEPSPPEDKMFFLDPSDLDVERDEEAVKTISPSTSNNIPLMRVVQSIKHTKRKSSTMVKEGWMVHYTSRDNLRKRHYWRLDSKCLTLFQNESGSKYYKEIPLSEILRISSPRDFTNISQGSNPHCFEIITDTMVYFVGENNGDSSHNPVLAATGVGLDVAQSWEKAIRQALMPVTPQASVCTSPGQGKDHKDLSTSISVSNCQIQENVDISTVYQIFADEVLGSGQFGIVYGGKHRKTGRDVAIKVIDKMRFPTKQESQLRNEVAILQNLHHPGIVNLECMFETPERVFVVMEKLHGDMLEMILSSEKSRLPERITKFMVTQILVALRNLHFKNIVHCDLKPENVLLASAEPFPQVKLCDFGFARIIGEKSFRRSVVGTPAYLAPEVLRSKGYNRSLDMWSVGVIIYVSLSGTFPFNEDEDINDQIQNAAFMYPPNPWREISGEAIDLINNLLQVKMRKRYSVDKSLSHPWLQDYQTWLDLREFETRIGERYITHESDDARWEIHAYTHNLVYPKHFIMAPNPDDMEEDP

[6] = target: Serine/threonine-protein kinase 33 (Homo sapiens) (UniProt Q9BYT3); assay: Selectivity interaction (KinomeScan (DiscoverX)) EUB0000607a STK33; details: at 10 µM
[7] = target: Serine/threonine-protein kinase pim-3 (Homo sapiens) (UniProt Q86V86); assay: Selectivity interaction (KinomeScan (DiscoverX)) EUB0000618a PIM3; details: at 10 µM
[8] = target: Wee1-like protein kinase (Homo sapiens) (UniProt P30291); assay: Selectivity interaction (KinomeScan (DiscoverX)) EUB0000618a WEE1; details: at 10 µM
[9] = target: T3, Serine/threonine-protein kinase Chk1 (Homo sapiens) (UniProt O14757); assay: Selectivity interaction (KinomeScan (DiscoverX)) EUB0001619a CHEK1; details: at 1 µM
T3 sequence (whole entry): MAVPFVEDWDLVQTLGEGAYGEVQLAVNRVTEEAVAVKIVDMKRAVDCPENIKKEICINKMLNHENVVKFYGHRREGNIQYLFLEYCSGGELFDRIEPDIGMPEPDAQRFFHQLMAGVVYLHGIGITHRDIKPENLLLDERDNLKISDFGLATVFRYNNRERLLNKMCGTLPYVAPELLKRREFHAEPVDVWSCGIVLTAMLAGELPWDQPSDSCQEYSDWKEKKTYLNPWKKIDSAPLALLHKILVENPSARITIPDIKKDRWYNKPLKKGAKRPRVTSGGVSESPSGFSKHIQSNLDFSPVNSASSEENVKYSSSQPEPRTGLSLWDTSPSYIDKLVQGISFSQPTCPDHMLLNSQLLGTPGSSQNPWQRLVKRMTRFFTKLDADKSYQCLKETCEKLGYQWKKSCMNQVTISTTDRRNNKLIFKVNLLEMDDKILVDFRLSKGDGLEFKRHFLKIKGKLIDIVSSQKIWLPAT

[10] = target: Mitogen-activated protein kinase 4 (Homo sapiens) (UniProt P31152); assay: Selectivity interaction (KinomeScan (DiscoverX)) EUB0001619a MAPK4; details: at 1 µM
[11] = target: RAF proto-oncogene serine/threonine-protein kinase (Homo sapiens) (UniProt P04049); assay: Selectivity interaction (KinomeScan (DiscoverX)) EUB0001619a RAF1; details: at 1 µM
Chain of RAF proto-oncogene serine/threonine-protein kinase (Homo sapiens) (P04049 whole entry): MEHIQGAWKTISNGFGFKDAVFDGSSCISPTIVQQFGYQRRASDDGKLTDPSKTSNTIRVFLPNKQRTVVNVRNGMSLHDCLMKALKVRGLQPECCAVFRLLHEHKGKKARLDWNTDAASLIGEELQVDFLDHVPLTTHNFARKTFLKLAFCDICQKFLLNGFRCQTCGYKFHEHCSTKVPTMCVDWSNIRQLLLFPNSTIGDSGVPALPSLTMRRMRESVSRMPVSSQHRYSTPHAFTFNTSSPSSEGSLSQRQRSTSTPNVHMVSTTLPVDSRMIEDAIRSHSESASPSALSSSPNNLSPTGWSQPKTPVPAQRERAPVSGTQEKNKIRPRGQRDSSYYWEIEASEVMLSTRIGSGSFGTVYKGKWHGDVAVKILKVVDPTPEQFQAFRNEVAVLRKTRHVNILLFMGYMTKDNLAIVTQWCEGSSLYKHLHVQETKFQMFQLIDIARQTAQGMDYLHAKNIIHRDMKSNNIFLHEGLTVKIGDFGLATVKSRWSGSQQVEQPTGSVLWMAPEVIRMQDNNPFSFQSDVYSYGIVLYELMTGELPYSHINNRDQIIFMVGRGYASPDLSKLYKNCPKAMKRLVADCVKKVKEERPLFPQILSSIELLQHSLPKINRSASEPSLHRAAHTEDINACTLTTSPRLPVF

Chain of Mitogen-activated protein kinase 4 (Homo sapiens) (P31152 whole entry): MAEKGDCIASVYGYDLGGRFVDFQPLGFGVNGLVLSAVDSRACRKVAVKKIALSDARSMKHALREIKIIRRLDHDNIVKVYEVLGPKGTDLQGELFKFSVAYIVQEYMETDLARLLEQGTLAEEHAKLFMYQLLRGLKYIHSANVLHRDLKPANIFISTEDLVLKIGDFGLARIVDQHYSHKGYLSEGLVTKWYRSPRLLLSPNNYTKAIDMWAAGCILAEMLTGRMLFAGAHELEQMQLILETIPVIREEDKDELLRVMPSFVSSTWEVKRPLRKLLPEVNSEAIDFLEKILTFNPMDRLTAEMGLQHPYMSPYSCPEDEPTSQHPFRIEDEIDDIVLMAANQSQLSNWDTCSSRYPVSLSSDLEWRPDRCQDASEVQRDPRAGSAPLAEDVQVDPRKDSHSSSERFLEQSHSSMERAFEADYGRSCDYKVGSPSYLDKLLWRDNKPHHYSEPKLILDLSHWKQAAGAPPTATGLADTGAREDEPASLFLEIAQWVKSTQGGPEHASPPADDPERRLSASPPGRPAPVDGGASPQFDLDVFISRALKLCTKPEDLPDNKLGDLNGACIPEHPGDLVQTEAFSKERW
Chain of Wee1-like protein kinase (Homo sapiens) (P30291 whole entry, looked up): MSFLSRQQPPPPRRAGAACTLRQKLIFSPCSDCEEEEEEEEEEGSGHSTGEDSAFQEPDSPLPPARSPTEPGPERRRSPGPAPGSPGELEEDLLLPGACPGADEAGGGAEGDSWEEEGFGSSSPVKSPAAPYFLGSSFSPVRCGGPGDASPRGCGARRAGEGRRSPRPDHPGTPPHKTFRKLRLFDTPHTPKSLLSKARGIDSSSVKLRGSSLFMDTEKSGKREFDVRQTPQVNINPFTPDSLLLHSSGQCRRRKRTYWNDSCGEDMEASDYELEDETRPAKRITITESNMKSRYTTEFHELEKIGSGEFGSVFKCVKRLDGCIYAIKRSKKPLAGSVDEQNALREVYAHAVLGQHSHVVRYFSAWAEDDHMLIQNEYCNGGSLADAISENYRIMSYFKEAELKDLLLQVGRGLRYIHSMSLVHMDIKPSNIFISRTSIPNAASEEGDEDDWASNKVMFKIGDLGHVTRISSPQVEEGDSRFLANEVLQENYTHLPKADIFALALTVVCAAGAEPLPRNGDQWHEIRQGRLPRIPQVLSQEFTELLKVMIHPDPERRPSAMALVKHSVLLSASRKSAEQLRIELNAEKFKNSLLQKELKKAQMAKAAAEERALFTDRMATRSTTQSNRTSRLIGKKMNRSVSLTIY
Chain of Mitogen-activated protein kinase 11 (Homo sapiens) (Q15759 whole entry): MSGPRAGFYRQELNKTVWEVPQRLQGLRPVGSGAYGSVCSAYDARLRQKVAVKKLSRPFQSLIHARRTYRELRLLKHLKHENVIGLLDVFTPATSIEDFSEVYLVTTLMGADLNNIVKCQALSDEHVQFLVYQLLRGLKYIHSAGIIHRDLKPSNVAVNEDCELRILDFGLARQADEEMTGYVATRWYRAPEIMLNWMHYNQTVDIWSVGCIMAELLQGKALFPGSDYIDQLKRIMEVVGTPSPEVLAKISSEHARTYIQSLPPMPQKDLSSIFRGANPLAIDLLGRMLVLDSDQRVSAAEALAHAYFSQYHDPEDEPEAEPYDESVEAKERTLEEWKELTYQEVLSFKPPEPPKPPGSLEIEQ
Chain of Serine/threonine-protein kinase 33 (Homo sapiens) (Q9BYT3 whole entry, looked up): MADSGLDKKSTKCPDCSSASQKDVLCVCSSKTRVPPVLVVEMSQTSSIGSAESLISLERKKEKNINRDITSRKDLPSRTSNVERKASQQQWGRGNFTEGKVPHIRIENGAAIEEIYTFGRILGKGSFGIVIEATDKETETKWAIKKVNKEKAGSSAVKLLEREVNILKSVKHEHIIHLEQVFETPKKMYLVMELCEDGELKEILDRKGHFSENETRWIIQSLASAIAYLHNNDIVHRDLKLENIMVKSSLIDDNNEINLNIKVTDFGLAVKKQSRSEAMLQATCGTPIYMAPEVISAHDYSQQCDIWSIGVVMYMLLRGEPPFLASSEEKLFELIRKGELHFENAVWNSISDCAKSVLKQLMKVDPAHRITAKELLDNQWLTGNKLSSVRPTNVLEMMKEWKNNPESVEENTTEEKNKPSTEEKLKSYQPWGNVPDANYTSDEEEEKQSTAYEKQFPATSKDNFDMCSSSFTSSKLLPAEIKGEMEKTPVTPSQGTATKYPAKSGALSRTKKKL
Chain of Serine/threonine-protein kinase 24 (Homo sapiens) (Q9Y6E0 whole entry, looked up): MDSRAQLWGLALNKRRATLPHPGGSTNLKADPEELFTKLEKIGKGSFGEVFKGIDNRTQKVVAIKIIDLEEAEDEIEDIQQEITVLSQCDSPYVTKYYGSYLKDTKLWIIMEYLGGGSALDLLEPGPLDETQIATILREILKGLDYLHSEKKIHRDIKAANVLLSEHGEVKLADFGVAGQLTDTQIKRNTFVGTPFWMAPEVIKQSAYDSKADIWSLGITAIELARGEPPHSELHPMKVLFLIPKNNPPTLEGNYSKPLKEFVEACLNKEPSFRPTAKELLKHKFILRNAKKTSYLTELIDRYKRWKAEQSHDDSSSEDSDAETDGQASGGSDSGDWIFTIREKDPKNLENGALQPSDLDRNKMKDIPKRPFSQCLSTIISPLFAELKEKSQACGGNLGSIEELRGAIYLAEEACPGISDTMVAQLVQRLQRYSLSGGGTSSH
Chain of Histone acetyltransferase KAT2B (Q92831 whole entry, looked up): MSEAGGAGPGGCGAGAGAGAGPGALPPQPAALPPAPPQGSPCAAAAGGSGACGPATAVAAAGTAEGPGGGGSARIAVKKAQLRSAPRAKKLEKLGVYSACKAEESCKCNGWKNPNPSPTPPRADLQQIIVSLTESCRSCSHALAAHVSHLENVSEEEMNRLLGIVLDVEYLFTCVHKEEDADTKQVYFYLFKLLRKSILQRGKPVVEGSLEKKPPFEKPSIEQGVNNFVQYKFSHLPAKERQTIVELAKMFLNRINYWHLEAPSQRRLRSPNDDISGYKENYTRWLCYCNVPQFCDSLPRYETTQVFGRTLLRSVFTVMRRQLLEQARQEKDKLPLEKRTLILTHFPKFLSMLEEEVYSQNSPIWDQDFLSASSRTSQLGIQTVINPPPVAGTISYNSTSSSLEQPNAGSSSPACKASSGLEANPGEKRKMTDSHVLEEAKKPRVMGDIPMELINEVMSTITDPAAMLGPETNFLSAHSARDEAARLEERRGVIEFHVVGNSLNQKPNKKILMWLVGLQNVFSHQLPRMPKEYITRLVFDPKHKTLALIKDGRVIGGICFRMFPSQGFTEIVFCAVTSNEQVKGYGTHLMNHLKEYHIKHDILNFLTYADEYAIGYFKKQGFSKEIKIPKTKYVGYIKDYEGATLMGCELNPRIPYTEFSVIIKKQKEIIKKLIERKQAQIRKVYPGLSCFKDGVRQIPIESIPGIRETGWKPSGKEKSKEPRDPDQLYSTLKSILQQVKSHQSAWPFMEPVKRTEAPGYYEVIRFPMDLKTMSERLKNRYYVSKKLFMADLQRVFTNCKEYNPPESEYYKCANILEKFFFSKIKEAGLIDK

## C=CC(=O)Nc1ccc(C(=O)Nc2[nH]nc3c2CN(C(=O)N[C@H](CN(C)C)c2ccccc2)C3(C)C)cc1
[1]
  % of engagement: 24%

## CC(=O)Nc1cccc(-n2c(=O)n(C3CC3)c(=O)c3c(Nc4ccc(I)cc4F)n(C)c(=O)c(C)c32)c1
[2]
  % of control: 104%

## Cc1cc([C@@H](C)Nc2ccccc2C(=O)O)c2nc(N3CCOCC3)cc(=O)n2c1 [AZD-6482]
[3]
  % of control: 96%

## Cc1cc(CN)cc(C)c1-c1ncn(C)c1-c1cncn1C
[4]
  dTM: -0.88 K

## CC[C@@H]1[C@H](F)C(=O)N[C@@H]1COc1nccc2cc(C(N)=O)c(OC)cc12 [ZIMLOVISERTIB]
[5]
  % of inhibition: -5.2%

## CNC(=O)Nc1ccc(-c2nc(N3CC4CCC(C3)O4)c3cnn(C4CCC5(CC4)OCCO5)c3n2)cc1
[6]
  % of control: 82%

## O[C@H]1CC[C@H](Nc2ncc3nc(Nc4c(F)cc(F)cc4F)n([C@H]4CCOC4)c3n2)CC1
[7]
  % of control: 100%
[8]
  % of control: 100%

## N#Cc1cccc(-c2c[nH]c3ncnc(N4CCOCC4)c23)c1
[9]
  % of control: 94%
[10]
  % of control: 95%
[11]
  % of control: 71%
